This is an account of results in PMC7956476, “Quinoline Functionalized Schiff Base Silver (I) Complexes: Interactions with Biomolecules and In Vitro Cytotoxicity, Antioxidant and Antimicrobial Activities” (Molecules, 2021).

Structures are written as SMILES. Converted amounts (≈) assume the structure as drawn. Like-named read-outs stand apart in the source and are kept apart here.

Data set [1] deals with Staphylococcus aureus ATCC 25923. Details: method as in doi:10.1016/j.poly.2019.06.038. As to conditions: standard; S. aureus; cited from earlier work.
The test system of data set [2] is Staphylococcus aureus ATCC 700699 (methicillin-resistant). Details: method as in doi:10.1016/j.poly.2019.06.038. As to conditions: standard; cited from earlier work.
Data set [3] has as its system Pseudomonas aeruginosa ATCC 27853. Details: method as in doi:10.1016/j.poly.2019.06.038. As to conditions: standard; P. aeruginosa; cited from earlier work.
Data set [4] relates to Salmonella typhimurium ATCC 14026. As to conditions: standard; S. typhi; cited from earlier work.
Data set [5] relates to Escherichia coli ATCC 25922. Details: method as in doi:10.1016/j.poly.2019.06.038. As to conditions: standard; E. coli; cited from earlier work.
Data set [6] relates to human embryonic kidney 293 (HEK293). Put plainly: Cytotoxicity assay (CellTiter 96 AQueous One Solution, 72 h). The data set is classed as cell-based. As to conditions: normal cell line, n = 3, read-out: EC50 ± Std Dev (µM) HEK293. How it is done: (§1) In vitro cell viability with cultured cells is a method commonly used for cytotoxicity activities of potential anticancer compounds due to reduced cost speed, and potential for automation, and tests using human cells other than some in vivo animal tests. […] The cytotoxicity assay was conducted as per the standard method and as described by Abrahams et al. 2018 [111]. […] The plate was then incubated for 72 h at 37 °C and 5% CO2. To each well, 20 µL CellTiter 96 AQueous One Solution (Promega, Madison, WI, USA) was added and the plates were incubated for 4 h as previously described. Thereafter, absorbance was read at 490 nm on a multiplate reader (Molecular Devices, San Jose, CA, USA). […] The values recorded are averages of at least three separate experiments (n = 3).

Data set [7] concerns breast cancer cell line (MDA-MB231). The description is as above. The format is cell-based, human. How it is done: as §1
The test system of data set [8] is cervical cancer cell line (HELA). The description is as above. The format is cell-based, human. How it is done: as §1
Data set [9] has as its system neuronal cancer cell line (SHSY5Y). The data set is described as above. The format is cell-based, human. How it is done:
as §1

Data set [10] relates to Escherichia coli ATCC 25922. Put plainly: Minimum inhibitory concentration (MIC), spotting on Müeller–Hinton agar. As to conditions: Gram − Ve; E. coli; 37 °C, 18 h. The format is cell-based.
Data set [11] has as its system Klebsiella pneumoniae ATCC 31488. The data set is described as above. The data set is classed as cell-based. As to conditions: versus the standard (0.8 µg/mL).
The test system of data set [12] is Pseudomonas aeruginosa ATCC 27853. Described as above. The format is cell-based. As to conditions: Gram − Ve; P. aeruginosa; 37 °C, 18 h.
The test system of data set [13] is Salmonella typhimurium ATCC 14026. The data set is described as above. As to conditions: Gram − Ve; S. typhi; 37 °C, 18 h. The format is cell-based.
In data set [14] the test system is Staphylococcus aureus ATCC 25923. Described as above. The data set is classed as cell-based. As to conditions: Gram + Ve; S. aureus; 37 °C, 18 h.
In data set [15] the test system is Staphylococcus aureus ATCC 700699 (methicillin-resistant). Described as above. The data set is classed as cell-based. As to conditions: Gram + Ve; methicillin-resistant S. aureus; 37 °C, 18 h.
The nature of data set [16]: Ferric reducing antioxidant power (FRAP) assay. The format is biochemical. As to conditions: done in triplicate.
A further data set deals with calf thymus DNA (CT-DNA). Put plainly: CT-DNA electronic absorption titration (Wolfe–Shimer). The format is binding. As to conditions: intrinsic binding constant, absorption titration, PBS pH 7.2.
The subject of a further data set is CT-DNA-EB adduct. The experiment in a line: Fluorescence competitive displacement of ethidium bromide from CT-DNA. The data set is classed as binding, calf. A digest of the protocol:
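CT-DNA (15 µM) was pre-equilibrated 30 min with ethidium bromide (15 µM) in phosphate buffer pH 7.2, then titrated with complexes (0–20 µM) at 8-min intervals at room temperature. EB emission was recorded at 530–700 nm (excitation 525 nm, 25 °C), and quenching was analysed by Stern–Volmer to give Ksv and Kq (τo taken as 10^−8 s).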

For data set [17], the target named is bovine serum albumin (BSA) (Bos taurus, UniProt P02769). Put plainly: Albumin binding by absorption spectroscopy titration.
Sequence of bovine serum albumin (BSA) (P02769 25-607): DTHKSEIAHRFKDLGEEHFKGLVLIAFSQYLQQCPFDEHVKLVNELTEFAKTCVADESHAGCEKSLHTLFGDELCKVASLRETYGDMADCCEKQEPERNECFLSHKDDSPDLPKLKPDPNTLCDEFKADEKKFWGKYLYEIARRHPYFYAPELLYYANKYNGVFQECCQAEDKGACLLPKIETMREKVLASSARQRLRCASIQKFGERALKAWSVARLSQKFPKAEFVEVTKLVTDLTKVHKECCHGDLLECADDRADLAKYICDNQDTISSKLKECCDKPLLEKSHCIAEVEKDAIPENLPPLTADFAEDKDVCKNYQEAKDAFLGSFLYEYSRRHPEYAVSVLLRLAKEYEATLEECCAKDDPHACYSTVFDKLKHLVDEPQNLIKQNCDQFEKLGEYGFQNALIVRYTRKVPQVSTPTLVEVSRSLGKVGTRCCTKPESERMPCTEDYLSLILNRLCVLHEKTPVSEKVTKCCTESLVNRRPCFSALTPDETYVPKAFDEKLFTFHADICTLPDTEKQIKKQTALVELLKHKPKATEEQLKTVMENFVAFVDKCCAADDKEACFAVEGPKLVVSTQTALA

As for `O=C(O)c1cn(C2CC2)c2cc(N3CCNCC3)c(F)cc2c1=O` [Ciprofloxacin], in data set [1], the “Minimum inhibitory concentration, SA” value is reported as 25 µg/mL (≈ 75.4 µM). The “Minimum inhibitory concentration, MRSA” value in data set [2] is 25 µg/mL (≈ 75.4 µM). For the same compound, the “Minimum inhibitory concentration, PA” value in [3] is given as 0.2 µg/mL (≈ 0.604 µM). The “Minimum inhibitory concentration, ST” value in data set [4] is reported as 0.4 µg/mL (≈ 1.21 µM). The “Minimum inhibitory concentration, EC” value in data set [5] was 1.6 µg/mL (≈ 4.83 µM).
By EC50 is commonly meant the concentration giving half of the maximal effect. As for `N.N.[Cl][Pt][Cl]` [Cisplatin, cisplatin, reference compound], the EC50 in data set [6] was 14.2 ± 3.8 µM; in [7] (72 h, n = 3, read-out: EC50 ± Std Dev (µM) MDA-MB231) it was 22.7 ± 4.89 µM; in data set [8] (72 h, n = 3, read-out: EC50 ± Std Dev (µM) HELA), more than 50 µM; in data set [9] (72 h, n = 3, read-out: EC50 ± Std Dev (µM) SHSY5Y), 19.7 ± 3.77 µM. Also, in [7] (EC50 in HEK293 over EC50 in MDA-MB231), the “Selectivity Index (SI) MDA-MB231” value stood at 0.63. In addition, in data set [8] (EC50 in HEK293 over EC50 in HELA), the “Selectivity Index (SI) HELA” value was determined as 0.28. Also, the “Selectivity Index (SI) SHSY5Y” value in data set [9] (EC50 in HEK293 over EC50 in SHSY5Y) amounted to 0.72.
On to `Clc1ccc(N=Cc2ccc3ccccc3n2)cc1.Clc1ccc(N=Cc2ccc3ccccc3n2)cc1.[Ag+].[O-][Cl+3]([O-])([O-])[O-]` [Complex Q8, [Ag(L3)2]ClO4], for which the “Minimum inhibitory concentration, EC” value in data set [10] was 1.6 µg/mL. The “activity times higher than the standard against K. pneumoniae” value in [11] is given as 64 times. Besides, the “Minimum inhibitory concentration, PA” value in data set [12] stood at 0.1 µg/mL. For the same compound, the “Minimum inhibitory concentration, ST” value in [13] worked out at 25 µg/mL. Also, the “Minimum inhibitory concentration, SA” value in data set [14] worked out at 50 µg/mL. The “Minimum inhibitory concentration, MRSA” value in data set [15] is reported as 25 µg/mL. Moreover, the “Antioxidant (IC50 mg/mL) FRAP” value in [16] was determined as 3.27 ± 0.093 mg/mL. In addition, in the data set with calf thymus DNA (CT-DNA), the “CT-DNA-Cmp. Kb (M^−1) × 10^5” value is given as 30.0 (M^−1) × 10^5. For the same compound, in the data set on CT-DNA-EB adduct (Stern–Volmer quenching constant, EB displacement, 25 °C), the “CT-DNA-EB-Complex Ksv (M^−1) × 10^4” value is 3.98 (M^−1) × 10^4. In the data set on CT-DNA-EB adduct (bimolecular quenching constant, Ksv = Kqτo, τo 10^−8 s), the “CT-DNA-EB-Complex Kq (M^−1S^−1) × 10^12” value was 3.98 (M^−1S^−1) × 10^12. In the data set with CT-DNA-EB adduct (binding constant from double-logarithmic plot), the “CT-DNA-EB-Complex Kbin (M^−1) × 10^5” value was 1.02 (M^−1) × 10^5. Besides, in data set [17], the “Protein-Complex Kb (M^−1) × 10^4” value is recorded as 9.48 (M^−1) × 10^4.
